Measurements from patent publication US20250382361A1, “AFFIBODIES, HYDROGELS CONTAINING AFFIBODIES, AND USES THEREOF” (University of Oregon, priority 2024, published 2025).
Where two headings read alike, the source gives them in different places.

How the values were obtained:
HUVECs [1] = experiment: Endothelial tube formation assay; format: cell-based, human
Protocol: Human umbilical vein endothelial cells (HUVECs) were seeded in tissue culture flasks at 2,500 cells/cm^2 and cultured in complete Endothelial Growth Medium (Lonza, Walkersville, MD) at 37° C. and 5% CO2. Upon reaching 60-80% confluence, cells were washed with PBS, trypsinized, and seeded at 5,000 or 15,000 cells/well onto 96-well plates pre-coated with 100 μL of Cultrex Reduced Growth Factor Basement Membrane Extract (RGF BME, R&D Systems). HUVECs were allowed to adhere to the coated surface for 2 hours. […] Cells were cultured for 48 hours on a BioTek Lionheart FX automated microscope (Agilent Technologies, Santa Clara, CA) at 37° C. and 5% CO2 with 4× phase contrast time lapse images taken at 4, 8, 12, 16, 20, 24, and 48 hours. Total network length and branching of HUVEC networks were measured from images using the Angiogenesis Analyzer plugin for ImageJ.
Responses of HUVECs to each of the three growth factors of interest were first studied.

HUVECs [2] = experiment: VEGF bioactivity HUVEC proliferation assay (CellTiter-Glo); format: cell-based, human; details: VEGF for 96 hours
VEGF165 = target: T1, VEGF165 (Homo sapiens, UniProt P15692); details: cited from earlier work
T1 construct: biotin (label as supplied by the vendor); purchased Acro Biosystems
T1 sequence (P15692 1-191 isoform P15692-4): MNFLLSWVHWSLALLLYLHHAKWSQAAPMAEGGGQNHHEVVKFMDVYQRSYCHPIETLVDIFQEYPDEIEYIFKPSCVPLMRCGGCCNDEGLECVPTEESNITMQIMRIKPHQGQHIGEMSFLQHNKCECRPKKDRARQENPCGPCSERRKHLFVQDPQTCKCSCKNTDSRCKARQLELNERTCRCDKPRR

antithrombin-III = antithrombin-III (Homo sapiens, UniProt P01008); details: cited from earlier work
Sequence of antithrombin-III (P01008 33-464, species assumed): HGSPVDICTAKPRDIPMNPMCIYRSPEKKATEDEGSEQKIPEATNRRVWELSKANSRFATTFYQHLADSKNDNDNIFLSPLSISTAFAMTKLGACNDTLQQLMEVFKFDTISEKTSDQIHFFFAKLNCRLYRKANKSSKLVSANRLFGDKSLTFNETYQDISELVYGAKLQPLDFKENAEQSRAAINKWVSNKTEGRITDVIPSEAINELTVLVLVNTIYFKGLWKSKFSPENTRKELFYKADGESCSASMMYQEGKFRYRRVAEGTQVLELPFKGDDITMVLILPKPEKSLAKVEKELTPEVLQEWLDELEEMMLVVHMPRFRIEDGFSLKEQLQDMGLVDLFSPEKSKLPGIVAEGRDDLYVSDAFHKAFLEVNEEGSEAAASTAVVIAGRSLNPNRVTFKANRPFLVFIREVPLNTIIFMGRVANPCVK

integrin α5β1 = integrin α5β1 (Homo sapiens, UniProt P05556+P08648); details: cited from earlier work
Sequence of integrin α5β1 (P08648 42-894 limits assumed): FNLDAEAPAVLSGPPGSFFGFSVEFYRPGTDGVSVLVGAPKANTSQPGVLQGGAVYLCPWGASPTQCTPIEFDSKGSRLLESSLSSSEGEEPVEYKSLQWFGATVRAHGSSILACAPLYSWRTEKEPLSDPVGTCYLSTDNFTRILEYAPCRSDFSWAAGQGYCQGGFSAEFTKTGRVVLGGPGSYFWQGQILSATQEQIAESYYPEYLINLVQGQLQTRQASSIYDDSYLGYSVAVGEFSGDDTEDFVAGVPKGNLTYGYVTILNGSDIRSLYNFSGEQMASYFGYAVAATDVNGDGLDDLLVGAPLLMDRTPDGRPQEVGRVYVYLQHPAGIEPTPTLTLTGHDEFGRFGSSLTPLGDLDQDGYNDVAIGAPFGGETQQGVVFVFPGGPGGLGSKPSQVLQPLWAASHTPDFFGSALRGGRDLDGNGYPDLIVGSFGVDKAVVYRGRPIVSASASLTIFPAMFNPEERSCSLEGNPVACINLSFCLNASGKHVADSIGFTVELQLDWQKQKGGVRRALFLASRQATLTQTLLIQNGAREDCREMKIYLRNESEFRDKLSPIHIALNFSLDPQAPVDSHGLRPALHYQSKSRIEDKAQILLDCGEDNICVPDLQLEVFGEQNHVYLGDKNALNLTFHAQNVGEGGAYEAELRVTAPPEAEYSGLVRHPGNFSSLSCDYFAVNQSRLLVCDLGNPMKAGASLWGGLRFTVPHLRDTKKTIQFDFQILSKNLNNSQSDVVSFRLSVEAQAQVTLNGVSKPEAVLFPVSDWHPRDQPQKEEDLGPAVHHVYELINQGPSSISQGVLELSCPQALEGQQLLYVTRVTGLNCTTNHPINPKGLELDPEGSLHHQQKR
Sequence of integrin α5β1 (P08648 895-1049 limits assumed): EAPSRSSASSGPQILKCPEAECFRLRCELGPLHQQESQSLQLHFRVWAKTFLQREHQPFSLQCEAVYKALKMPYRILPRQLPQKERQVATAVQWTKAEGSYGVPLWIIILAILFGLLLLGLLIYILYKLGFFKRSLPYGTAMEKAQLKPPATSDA
Sequence of integrin α5β1 (P05556 21-798): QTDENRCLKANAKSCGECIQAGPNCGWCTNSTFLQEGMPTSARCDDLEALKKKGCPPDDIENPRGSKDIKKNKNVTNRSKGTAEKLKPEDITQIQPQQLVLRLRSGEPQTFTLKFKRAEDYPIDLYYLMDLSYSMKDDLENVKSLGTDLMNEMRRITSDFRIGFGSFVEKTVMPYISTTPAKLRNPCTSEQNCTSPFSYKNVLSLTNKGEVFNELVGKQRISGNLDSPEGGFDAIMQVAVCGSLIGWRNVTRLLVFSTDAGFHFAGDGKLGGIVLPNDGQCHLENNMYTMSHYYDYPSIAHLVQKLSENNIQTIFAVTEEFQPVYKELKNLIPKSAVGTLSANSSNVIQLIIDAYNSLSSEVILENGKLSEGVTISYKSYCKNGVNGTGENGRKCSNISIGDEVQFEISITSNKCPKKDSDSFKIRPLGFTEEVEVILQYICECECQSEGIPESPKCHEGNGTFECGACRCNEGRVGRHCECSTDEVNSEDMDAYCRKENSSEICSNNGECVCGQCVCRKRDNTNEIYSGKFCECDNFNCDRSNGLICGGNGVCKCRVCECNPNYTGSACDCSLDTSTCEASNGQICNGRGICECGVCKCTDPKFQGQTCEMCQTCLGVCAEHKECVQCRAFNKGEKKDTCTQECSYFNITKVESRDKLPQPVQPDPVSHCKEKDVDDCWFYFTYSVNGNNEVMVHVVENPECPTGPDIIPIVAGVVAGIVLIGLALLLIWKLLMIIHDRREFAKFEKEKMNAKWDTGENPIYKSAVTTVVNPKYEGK

[3] = target: fibroblast growth factor-1 (Homo sapiens, UniProt P05230); details: cited from earlier work
Sequence of fibroblast growth factor-1 (P05230 whole entry, species assumed): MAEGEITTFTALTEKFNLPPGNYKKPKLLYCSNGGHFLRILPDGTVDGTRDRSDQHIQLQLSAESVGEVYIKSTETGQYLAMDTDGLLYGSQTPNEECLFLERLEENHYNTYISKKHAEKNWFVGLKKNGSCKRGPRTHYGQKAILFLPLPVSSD

[4] = target: PDGF receptor beta (PDGFRβ) on NIH/3T3-Luc cells (UniProt P05622 32-1098, limits assumed); experiment: cell-based or functional assay
Sequence of PDGF receptor beta (PDGFRβ) on NIH/3T3-Luc cells (P05622 32-1098 limits assumed): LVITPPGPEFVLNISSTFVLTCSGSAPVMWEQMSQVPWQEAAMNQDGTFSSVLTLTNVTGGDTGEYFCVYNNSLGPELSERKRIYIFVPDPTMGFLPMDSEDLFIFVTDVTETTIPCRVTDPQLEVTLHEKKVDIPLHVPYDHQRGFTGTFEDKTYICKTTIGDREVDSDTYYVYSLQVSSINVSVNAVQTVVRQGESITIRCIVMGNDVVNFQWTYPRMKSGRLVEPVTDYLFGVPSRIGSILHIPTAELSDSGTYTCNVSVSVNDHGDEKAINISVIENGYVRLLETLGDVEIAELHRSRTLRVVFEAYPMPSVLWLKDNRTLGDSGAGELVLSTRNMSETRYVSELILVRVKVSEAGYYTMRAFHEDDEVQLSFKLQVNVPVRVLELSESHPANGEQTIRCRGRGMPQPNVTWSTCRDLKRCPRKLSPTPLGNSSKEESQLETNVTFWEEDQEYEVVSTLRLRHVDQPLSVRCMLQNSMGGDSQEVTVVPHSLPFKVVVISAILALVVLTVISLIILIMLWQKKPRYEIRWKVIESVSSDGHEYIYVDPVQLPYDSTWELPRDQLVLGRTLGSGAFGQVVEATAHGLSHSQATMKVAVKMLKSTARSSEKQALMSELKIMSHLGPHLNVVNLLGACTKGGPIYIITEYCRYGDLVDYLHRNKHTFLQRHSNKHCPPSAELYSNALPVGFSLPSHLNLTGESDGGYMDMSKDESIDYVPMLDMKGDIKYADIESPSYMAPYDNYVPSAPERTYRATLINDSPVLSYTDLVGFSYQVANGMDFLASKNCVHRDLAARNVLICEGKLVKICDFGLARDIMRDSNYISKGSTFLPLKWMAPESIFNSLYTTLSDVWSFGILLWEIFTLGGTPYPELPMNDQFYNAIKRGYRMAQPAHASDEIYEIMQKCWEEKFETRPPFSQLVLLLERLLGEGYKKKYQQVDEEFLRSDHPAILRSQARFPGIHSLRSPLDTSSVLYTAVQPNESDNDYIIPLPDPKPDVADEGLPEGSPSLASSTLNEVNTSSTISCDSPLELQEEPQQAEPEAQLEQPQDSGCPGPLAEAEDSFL

NIH/3T3-Luc cells = experiment: PDGF bioactivity luciferase reporter assay; format: cell-based; details: PDGF for 5 hours
Protocol: NIH/3T3 fibroblast cells (ATCC) were thawed, seeded at 10,000 cell/cm^2, and expanded in growth medium consisting of DMEM containing 10% (v/v) fetal bovine serum (R&D Systems, Minneapolis, MN). Cultures were routinely maintained at 37° C. and 5% CO2 and passaged at 60-70% confluence. After three passages of expansion, NIH/3T3 cells were grown in Eagle's Minimal Essential Medium (EMEM, ATCC) for a single passage prior to transfection. Transfection mixtures were prepared according to the manufacturer's protocols. Briefly, 2500 ng of luciferase reporter plasmid pGL4.33 [luc2P/SRE/Hygro] […]
NIH/3T3-Luc cells were seeded at 31,250 cells/cm^2 and incubated in 100 μL of growth medium overnight in 96 well plates. […] Luminescence was then measured using SpectraMax 13 plate reader (Molecular Devices, San Jose, CA).
PDGF bioactivity was assessed using NIH/3T3 cells transfected with a firefly luciferase gene reporter plasmid that links multiple ERK1/2 signaling pathways, including PDGFRβ signaling, to luciferase expression through a serum response element under the regulation of ERK1/2 (FIG. 30A). […] Firefly luciferase expression was assessed via the conversion of 5′-fluoroluciferin to oxyfluoroluciferin, which generates a stable luminescent output correlated to firefly luciferase concentration. […]

[5] = target: T2, Recombinant VEGF165 (vascular endothelial growth factor) (UniProt P15692-4 27-191, biotinylated (bVEGF) in flow cytometry and BLI); experiment: biolayer interferometry, 25 nM bVEGF on streptavidin probes, soluble affibody 15.625-125 nM
T2 construct: also called VEGF-A (165); bVEGF
Protocol: All samples were diluted in PBS solution containing 0.05% Tween-20® (PBST). […] Dissociation constants were obtained from a 1:1 global curve fitting of the data. n=4.

[6] = target: T3, Recombinant human BMP-2 (bone morphogenetic protein 2) (human, UniProt P12643 283-396, biotinylated with Sulfo-NHS-Biotin (bBMP-2) in flow cytometry and BLI); experiment: flow cytometry, yeast-displayed affibody titrated with bBMP-2 0.5-1000 nM
T3 construct: Bought protein; also called bBMP-2; bBMP
T3 sequence (P12643 283-396 limits assumed): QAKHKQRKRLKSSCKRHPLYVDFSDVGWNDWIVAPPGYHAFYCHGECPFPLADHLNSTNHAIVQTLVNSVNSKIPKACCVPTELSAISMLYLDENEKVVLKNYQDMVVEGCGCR
Source text: Yeast clones with names starting with the letter A were identified using the gating approach in FIG. 2A, and yeast clones with names starting with B were identified using the gate approach in FIG. 2B. The affibodies chosen for further characterization are boxed in the legend.

## FGF-2: Recombinant FGF-2 (PeproTech)
HUVECs [1]; 5, 10, or 50 ng/mL
  HUVEC network length and branching: limited impact

## VEGF
HUVECs [1]
  HUVEC network length and branching: limited impact
HUVECs [2]
  maximum response: approximately 36,000 relative luminescent units (RLUs)

## heparin
VEGF165
  Kd: 165 nM
antithrombin-III
  Kd: 163 nM
Integrin α5β1
  Kd: 2040 nM
[3]
  Kd: 461 nM

B1: Recombinant human PDGF-BB (platelet-derived growth factor) (ligand, UniProt P01127 82-190, looked up)
chain: SLGSLTIAEPAMIAECKTRTEVFEISRRLIDRTNANFLVWPPCVEVQRCSGCCNNRNVQCRPTQVQLRPVQVRKIEIVRKKPIFKKATVTLEDHLACKCETVAAARPVT
modifications: biotinylated (bPDGF) in flow cytometry and off-target BLI; not biotinylated in the Ni-NTA BLI
[4]
  50% effective dose (EC50), luminescence of NIH/3T3-Luc reporter cells: 2.94 ng/mL

B2: PDGF: Recombinant PDGF-BB (PeproTech) (protein)
chain: SLGSLTIAEPAMIAECKTRTEVFEISRRLIDRTNANFLVWPPCVEVQRCSGCCNNRNVQCRPTQVQLRPVQVRKIEIVRKKPIFKKATVTLEDHLACKCETVAAARPVT
NIH/3T3-Luc cells
  maximal response: 23,655 relative luminescent units (RLUs)
HUVECs [1]; 5, 10, or 50 ng/mL
  HUVEC network length and branching: limited impact

B3: Moderate Affinity BMP-2 Affibody, soluble, with hexahistidine tag and C-terminal cysteine (SEQ ID NO: 72) (designed binder)
chain: AEAKYAKEQFNAYVVIFYLPNLTASQKAAFVDALSNDPSQSSELLSEAKKLNDSQAPKHHHHHHC
notes: E. coli-expressed; also called A2-2
[5]
  binding result: no binding (tested: 125 nM)

B4: Moderate Affinity BMP-2 affibody A2-2 (SEQ ID NO: 2), yeast-displayed (designed binder)
chain: AEAKYAKEQFNAYVVIFYLPNLTASQKAAFVDALSNDPSQSSELLSEAKKLNDSQAPK
[6]
  EC50 (read off the curve): ~20 nM

B5: BMP-2 affibody A3-2 (SEQ ID NO: 9), yeast-displayed (designed binder)
chain: AEAKYAKEQFNAYVVIFYLPNLTASQKAAFVDALSNDPSQSSELLSEAKKLNDSQAPK
[6]
  EC50 (read off the curve): ~10 nM
